# Measured values published in ChEMBL document CHEMBL4483862, “Open-source discovery of chemical leads for next-generation chemoprotective antimalarials” (2018).
# pIC50: −log10 of the molar value.
# Test system: Plasmodium berghei
# Assay: Luciferase/luciferin-expressing antifolate-resistant parasites were used to infect a culture of HepG2 cells that were pre-incubated with compounds. Infected hepatocytes emit light due to the luciferase reaction. Assay results are presented as the percent inhibition of light emission compared to control. […]
# Assay type: functional
# Conditions: sporozoite; for IC90: read-out: LUCIFERASE INFECTION ASSAY - IC90
# [1] = PBLUC_HILL_SLOPE 22.1, PBLUC_R_SQUARED 0.617, read-out: LUCIFERASE INFECTION ASSAY - IC50
Structure (SMILES),IC90 [µM],also measured
CCOc1ccc(C(=O)NCc2ccco2)cc1Cl,> 11.8,"pIC50 (PBLUC_HILL_SLOPE 19.7, PBLUC_R_SQUARED 0.665, read-out: LUCIFERASE INFECTION ASSAY - IC50): 4.94"
CCCCn1c(=O)[nH]c(=O)c2c1nc(-c1ccc(C)c([N+](=O)[O-])c1)n2CC,3.73,"pIC50 (PBLUC_HILL_SLOPE 20.6, PBLUC_R_SQUARED 0.559, read-out: LUCIFERASE INFECTION ASSAY - IC50): 5.47"
CN(C)c1nn(C(=O)Nc2cccc(C(F)(F)F)c2)cc1-c1ccccc1,8.43,"pIC50 (PBLUC_HILL_SLOPE 19.3, PBLUC_R_SQUARED 0.463, read-out: LUCIFERASE INFECTION ASSAY - IC50): 5.12"
O=C(NC1CCCC1)c1ccc(-c2cn3c(-c4ccc(CO)cc4)cnc3cn2)cc1,7.79,"pIC50 (PBLUC_HILL_SLOPE 20, PBLUC_R_SQUARED 0.468, read-out: LUCIFERASE INFECTION ASSAY - IC50): 5.16"
Cc1ccc(-c2nn(-c3ccccc3)cc2/C=C/C(=O)NC2CCN(Cc3ccccc3)CC2)cc1,9.38,"pIC50 (PBLUC_HILL_SLOPE 22.5, 12.9, PBLUC_R_SQUARED 0.0358, 0.549, read-out: LUCIFERASE INFECTION ASSAY - IC50): 5.08"
Nc1nc(Sc2ncnc3sccc23)nc2sccc12,8.89,"pIC50 (PBLUC_HILL_SLOPE 20, PBLUC_R_SQUARED 0.321, read-out: LUCIFERASE INFECTION ASSAY - IC50): 5.10"
CC(C)(C)c1cc(C(=O)Nc2nc(C(N)c3ccccc3Cl)cs2)n(Cc2ccccc2)n1 (stereo not given),6.37,"pIC50 (PBLUC_HILL_SLOPE 22.9, PBLUC_R_SQUARED 0.71, read-out: LUCIFERASE INFECTION ASSAY - IC50): 5.24"
COc1cc(/C=C/C(=O)c2ccc(C#N)cc2)cc(Br)c1OCC(=O)N(C)C,> 10,"pIC50 (PBLUC_HILL_SLOPE 20.1, PBLUC_R_SQUARED 0.243, read-out: LUCIFERASE INFECTION ASSAY - IC50): 5.02"
COc1cncc(-c2cncc(Nc3cccc(Cl)c3)c2)c1,9.85,"pIC50 (PBLUC_HILL_SLOPE 20.7, PBLUC_R_SQUARED 0.436, read-out: LUCIFERASE INFECTION ASSAY - IC50): 5.05"
CN1\C(=C/C=N/N=C/C2=C(N3CCOCC3)C(=C\c3ccc([N+](=O)[O-])cc3)/CC2)C(C)(C)c2ccccc21,9.46,"pIC50 (PBLUC_HILL_SLOPE 22.4, PBLUC_R_SQUARED 0.296, read-out: LUCIFERASE INFECTION ASSAY - IC50): 5.07"
Cc1nc(C(C)(C)C)nc2sc(C(=O)N(C)CC(=O)Nc3cccc(F)c3)c(C)c12,3.71,"pIC50 (PBLUC_HILL_SLOPE 21.5, PBLUC_R_SQUARED 0.514, read-out: LUCIFERASE INFECTION ASSAY - IC50): 5.47"
COc1cc(OC)c(NC(=O)c2cc3ccccc3cc2OCC(=O)NCc2ccco2)cc1Cl,> 10,pIC50 [1]: 5.04
CN(C)c1cccc(-c2ccc3ncc(-c4ccoc4)n3n2)c1,9.49,"pIC50 (PBLUC_HILL_SLOPE 19.8, PBLUC_R_SQUARED 0.226, read-out: LUCIFERASE INFECTION ASSAY - IC50): 5.07"
O=C(Nc1ccn(-c2ccccc2)n1)c1cc(-c2ccccc2)nc2ccccc12,> 10,"pIC50 (PBLUC_HILL_SLOPE 22.3, 9.62, PBLUC_R_SQUARED 0.228, 0.621, read-out: LUCIFERASE INFECTION ASSAY - IC50): 5.02"
Cc1c(C(=O)Nc2ccccc2O)cnn1-c1cccc(C(F)(F)F)c1,3.64,"pIC50 (PBLUC_HILL_SLOPE 22.3, PBLUC_R_SQUARED 0.482, read-out: LUCIFERASE INFECTION ASSAY - IC50): 5.48"
Cc1nn(-c2ccccn2)c2c1C(c1ccccc1Cl)C1=C(N2)c2ccccc2C1=O (stereo not given),> 10,pIC50 [1]: 5.04
O=c1c(Cl)c(Cl)cnn1-c1ccc(S(=O)(=O)NCCc2ccc3c(c2)OCCO3)cc1,> 10,"pIC50 (PBLUC_HILL_SLOPE 21.5, PBLUC_R_SQUARED 0.289, read-out: LUCIFERASE INFECTION ASSAY - IC50): 5.02"
NC(=O)c1ccc(-c2cc(-c3ccccc3Oc3ccccc3)cnc2N)cc1,2.98,"pIC50 (PBLUC_HILL_SLOPE 21, PBLUC_R_SQUARED 0.292, read-out: LUCIFERASE INFECTION ASSAY - IC50): 5.57"
CC(Nc1ccnc2cc(Cl)ccc12)c1ccccc1Cl (stereo not given),3.6,"pIC50 (PBLUC_HILL_SLOPE 22.7, PBLUC_R_SQUARED 0.0753, read-out: LUCIFERASE INFECTION ASSAY - IC50): 5.49"
COc1ccc(-c2cnc3cnc(-c4ccc(C(=O)NC5CC5)cc4)cn23)cn1,> 8.56,"pIC50 (PBLUC_HILL_SLOPE 21.9, PBLUC_R_SQUARED 0.538, read-out: LUCIFERASE INFECTION ASSAY - IC50): 5.11"

Structure (SMILES),IC90 [µM],also measured
CC(OC(=O)c1cccc(NC(=O)c2cccs2)c1)C(=O)C12CC3CC(CC(C3)C1)C2 (stereo not given),3.57,"pIC50 (PBLUC_HILL_SLOPE 20.8, PBLUC_R_SQUARED 0.61, read-out: LUCIFERASE INFECTION ASSAY - IC50): 5.49"
COc1ccccc1Oc1ccc(NC(C)C(=O)N2CCCC2)cc1 (stereo not given),> 10,"pIC50 (PBLUC_HILL_SLOPE 21.7, PBLUC_R_SQUARED 0.137, read-out: LUCIFERASE INFECTION ASSAY - IC50): 5.01"
C/C(=N\NC(=S)Nc1cccc(C(F)(F)F)c1)c1cc(Cl)cc(Cl)c1O,> 7.82,"pIC50 (PBLUC_HILL_SLOPE 20.9, PBLUC_R_SQUARED 0.295, read-out: LUCIFERASE INFECTION ASSAY - IC50): 5.11"
CC(C)(C)c1ccccc1NC(=O)c1csc(N2CCN(CCc3ccccc3)C2=O)n1,> 10,"pIC50 (PBLUC_HILL_SLOPE 20.4, PBLUC_R_SQUARED 0.59, read-out: LUCIFERASE INFECTION ASSAY - IC50): 5.05"
CC(OC(=O)c1ccccc1Nc1ccc(F)cc1)C(=O)N1CCCC1 (stereo not given),9.97,"pIC50 (PBLUC_HILL_SLOPE 20.8, 17.7, PBLUC_R_SQUARED 0.125, 0.439, read-out: LUCIFERASE INFECTION ASSAY - IC50): 5.05"
CCN1CCN(c2ccc(NC(=O)c3csc(COc4ccc(F)cc4)n3)c(C)c2)CC1,4.43,"pIC50 (PBLUC_HILL_SLOPE 19.9, PBLUC_R_SQUARED 0.58, read-out: LUCIFERASE INFECTION ASSAY - IC50): 5.40"
CC(C)N(C(=O)COC(=O)c1ccccc1-c1nc2ccccc2s1)c1ccccc1,> 10,"pIC50 (PBLUC_HILL_SLOPE 20.1, PBLUC_R_SQUARED 0.325, read-out: LUCIFERASE INFECTION ASSAY - IC50): 5.04"
O=C(c1cccc2ccccc12)N(c1ccc(F)cc1)c1nc2ccccc2s1,> 10,"pIC50 (PBLUC_HILL_SLOPE 22.2, PBLUC_R_SQUARED 0.211, read-out: LUCIFERASE INFECTION ASSAY - IC50): 5.04"
CCOc1ccc2nc(N/N=C3/C(=O)N(c4ccccc4)N=C3C)sc2c1,9.42,"pIC50 (PBLUC_HILL_SLOPE 22.7, PBLUC_R_SQUARED 0.625, read-out: LUCIFERASE INFECTION ASSAY - IC50): 5.07"
COc1ccc(-c2cnc3cnc(-c4cccc(C(=O)NCCO)c4)cn23)cc1,8.22,"pIC50 (PBLUC_HILL_SLOPE 19.3, PBLUC_R_SQUARED 0.197, read-out: LUCIFERASE INFECTION ASSAY - IC50): 5.13"
O=C(NCC(=O)N1CCCC1)c1cccc2c3c([nH]c12)CCCCC3,3.72,"pIC50 (PBLUC_HILL_SLOPE 19.4, PBLUC_R_SQUARED 0.17, read-out: LUCIFERASE INFECTION ASSAY - IC50): 5.48"
CC/N=c1\scc(-c2ccc(Cl)cc2)n1/N=C/c1ccc[nH]1,0.416,"pIC50 (PBLUC_HILL_SLOPE 20.7, PBLUC_R_SQUARED 0.413, read-out: LUCIFERASE INFECTION ASSAY - IC50): 6.43"
COc1cc(NC(=O)Nc2ccc3nc(Cc4ccccc4)nn3c2)cc(OC)c1OC,4.31,"pIC50 (PBLUC_HILL_SLOPE 20.6, PBLUC_R_SQUARED 0.32, read-out: LUCIFERASE INFECTION ASSAY - IC50): 5.41"
Cc1csc(NC(=O)c2ccc3[nH]c4c(c3c2)CC(C)CC4)n1 (stereo not given),> 10,"pIC50 (PBLUC_HILL_SLOPE 21.4, PBLUC_R_SQUARED 0.315, read-out: LUCIFERASE INFECTION ASSAY - IC50): 5.02"
Cc1ccc(Cn2cc(/C=C/C(=O)Nc3ccn(C)n3)c(-c3ccccc3)n2)cc1,5.35,"pIC50 (PBLUC_HILL_SLOPE 23.0, 1.63, PBLUC_R_SQUARED 0.221, 0.716, read-out: LUCIFERASE INFECTION ASSAY - IC50): 5.27"
COc1ccccc1CNC(=O)Nc1nc(C(N)Cc2ccc(C(F)(F)F)cc2)cs1 (stereo not given),7.12,"pIC50 (PBLUC_HILL_SLOPE 20.8, PBLUC_R_SQUARED 0.198, read-out: LUCIFERASE INFECTION ASSAY - IC50): 5.19"
CCCCOc1ccc(Nc2nc(C(N)Cc3ccc(F)cc3)cs2)nn1 (stereo not given),> 8.52,"pIC50 (PBLUC_HILL_SLOPE 19.3, PBLUC_R_SQUARED 0.0642, read-out: LUCIFERASE INFECTION ASSAY - IC50): 5.08"
O=C(CSCc1cccs1)Nc1nc(-c2ccccn2)cs1,9.38,"pIC50 (PBLUC_HILL_SLOPE 22, PBLUC_R_SQUARED 0.337, read-out: LUCIFERASE INFECTION ASSAY - IC50): 5.07"
COc1ccc(OC)c(NC(=O)Nc2ccc(OC(F)(F)F)cc2)c1,> 9.26,"pIC50 (PBLUC_HILL_SLOPE 22.3, PBLUC_R_SQUARED 0.0229, read-out: LUCIFERASE INFECTION ASSAY - IC50): 5.04"
CC1CN(Cc2csc(Nc3ccccc3)n2)CC(C)O1 (stereo not given),9.23,"pIC50 (PBLUC_HILL_SLOPE 20.5, 3.85, PBLUC_R_SQUARED 0.234, 0.496, read-out: LUCIFERASE INFECTION ASSAY - IC50): 5.13"
